The record followed here is US12570988B2, “Aptamers that bind thiamine analogs and derivatives” (MeiraGTx Gene Regulation Limited, priority 2020, dated 2026).

Assay [1] deals with riboswitch 15D10. Nature of the assay: Luciferase reporter with 15D10 riboswitch (Luci-15D10) in HEK 293 cells. It is filed as cell-based, human. The settings on record: Homo sapiens, HEK293, 24 h, read-out: Fold increase in riboswitch 15D10-regulated luciferase expression, HEK. The method, boiled down:
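Cells transfected with riboswitch-luciferase plasmid; 4 h later medium replaced with TPP or thiamine analogs (fursultiamine, prosultiamine, bisbentiamine, beclotiamine, sulbutiamine) as inducers.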
For orientation: In a reporter assay the amount or activity of a reporter protein is the signal.

For assay [2], the system named is riboswitch 15D10. Nature of the assay: Luciferase reporter with 15D10 riboswitch (Luci-15D10) in AML12 cells. It counts as cell-based, mouse.
Assay [3] relates to riboswitch TPPz (A. tabrizica thiC TPP aptamer). Nature of the assay: Luciferase reporter with TPPz riboswitch in HEK 293 cells. It counts as cell-based, human. Particulars: FIG. 1. From the text:
(§1) Riboswitch constructs: Aptamers were synthesized by Integrated DNA Technologies, Inc. and Golden Gate cloning strategy (New England Biolabs, NEB) was used to clone the synthesized aptamer sequences into intron-exon-intron cassette to replace the guanine aptamer in the G17 riboswitch cassette (see SEQ ID NO: 15 recited in WO 2016/126747, which is incorporated herein in its entirety) with a TPP aptamer from the Alishewanella tabrizica thiC gene (Microbiol Res. 2017 January; 195:71-80) or a TPP aptamer from the Escherichia coli thiM gene (Structure. 2006 September; 14(9):1459-68), generating riboswitch TPPz and TPPm, respectively.
(§2) Transfection: 3.5×10^4 human embryonic kidney (HEK) 293 cells were plated in a 96-well flat bottom plate the day before transfection. Plasmid DNA (500 ng) was added to a tube or a 96-well U-bottom plate. Separately, TransIT-293 reagent (Mirus; 1.4 μL) was added to 50 μL Optimem I media (Life Technologies) and allowed to sit for 5 minutes at room temperature (RT). Then, 50 μL of this diluted transfection reagent was added to the DNA, mixed, and incubated at RT for 20 min. Finally, 7 μL of this solution was added to a well of cells in the 96-well plate. Four hours after transfection, medium containing transfection solution was replaced by medium containing either TPP, fursultiamine, prosultiamine, bisbentiamine, beclotiamine hydrochloride, or sulbutiamine as aptamer inducers.
(§3) Firefly luciferase assay of cultured cells: Twenty-four hours after media change, plates were removed from the incubator, and equilibrated to RT for several minutes on a lab bench, then aspirated. Glo-lysis buffer (Promega, 100 μL, RT) was added, and the plates allowed to remain at RT for at least 5 minutes. Then, the well contents were mixed by 50 μL trituration, and 20 μL of each sample was mixed with 20 μL of bright-glo reagent (Promega) that had been diluted to 10% in glo-lysis buffer. 96 wells were spaced on an opaque white 384-well plate. Following a 5 min incubation at RT, luminescence was measured using a Tecan machine with 500 ms read time. The luciferase activity was expressed as mean arbitrary light units (ALU)±S.D., and fold induction was calculated as the quotient of the luciferase activity obtained from cells with TPP or analog treatment divided by the luciferase activity obtained from cells without TPP or analog treatment.

Assay [4] has as its system riboswitch TPPm (E. coli thiM TPP aptamer). Nature of the assay: Luciferase reporter with TPPm riboswitch in HEK 293 cells. It is filed as cell-based, human. The settings on record: FIG. 1.
Excerpt: as §1, §2, §3

Another assay deals with 14G4 riboswitch. Particulars: HEK 293 cells; dose dependent; FIG. 2. From the text:
Riboswitch construction: TPP aptamer homologous sequences were obtained from Rfam 12.0 (https://rfam.xfam.org/) and synthesized (Twister Biotech).
To identify aptamers with increased gene regulation activity in response to thiamine analogs as compared to TPPz and TPPm, a putative TPP aptamer with homologous sequence was obtained from Rfam 12.0 (RNA family database RF00059, http://rfam.xfam.org/family/RF00059).

The test system of assay [5] is riboswitch comprising aptamer 15A5. Nature of the assay: Luciferase reporter with 15A5 riboswitch in AML12 cells. The settings on record: FIG. 6B. It counts as cell-based, mouse.
Assay [6] relates to riboswitch comprising aptamer 6B4. From the text: (§4) Riboswitch constructs: Alternative splicing riboswitches containing aptamers 3H4 or 15D10, respectively, were inserted at position 308 into the mouse erythropoietin cDNA sequence in construct Con8-Epo (SEQ ID NO:85), resulting in constructs Epo-3H4 (SEQ ID NO:86) and Epo-15D10 (SEQ ID NO:87). Expression of the erythropoietin gene was driven by a cytomegalovirus (CMV) promoter. The riboswitch cassette containing aptamer 6B4 was inserted at position 276 into the cDNA sequence encoding enhanced green fluorescent protein (EGFP) in vector pEGFP-C1 to generate the EGFP-6B4 construct (SEQ ID NO:88). The intron-exon-intron cassette without aptamer sequence was inserted into Con8-Epo to create construct Epo-Con1 (SEQ ID NO:89), serving as a control for constitutive target gene expression.

The test system of assay [7] is riboswitch comprising aptamer 15D10. The settings on record: 12.5 μM, AML12 cells.
Excerpt: as §4
(§5) Enzyme-linked immunosorbent assay (ELISA) for mouse erythropoietin: AML12 cells were transfected as described in Example 1 with TransIT-X2 transfection reagent (Mirus Bio). Four hours after transfection, AML12 cells were treated with or without fursultiamine at the indicated doses. The supernatants from the transfected cells were collected 24 hours after fursultiamine treatment and were subjected to ELISA for the detection of mEpo in the supernatant following the manufacturer's instruction (R&D).

Assay [8] deals with riboswitch comprising aptamer 3H4. Particulars: 12.5 μM; AML12 cells; versus absence of fursultiamine.
Excerpt: as §4, §5

With `CC(=C(CCO)SSCC1CCCO1)N(C=O)Cc1cnc(C)nc1N` (stereo in doubt) [fursultiamine], the fold induction at 50 µM with riboswitch 15D10 [1] worked out at 446; in the assay with riboswitch 15D10 [2] (Mus musculus, AML12, 24 h, read-out: Fold increase in riboswitch 15D10-regulated luciferase expression, AML), 315. Also, the “luciferase regulation in response to ligand, riboswitch 15D10” value in the assay on riboswitch 15D10 [2] (AML12 cells, FIG. 6B) is “robustly regulate luciferase expression”. In addition, the “effect on luciferase expression, riboswitch TPPz” value in assay [3] is “induce luciferase expression”. Further, the “effect on luciferase expression, riboswitch TPPm” value in assay [4] is recorded as “induce luciferase expression”. The “increase in luciferase expression, 14G4 riboswitch” value in the assay on 14G4 riboswitch came out at 100 fold. Also, the “luciferase regulation in response to ligand, riboswitch 15A5” value in assay [5] was “robustly regulate luciferase expression”. Further, the “increase in EGFP expression” value in [6] amounted to 14 fold. In addition, the “level of mEpo from mEpo-15D10 relative to constitutive mEpo-Con1 construct” value in [7] is on record as “approximately 61.3%”. The “induction of mEpo expression, Epo-15D10” value in assay [7] (versus absence of fursultiamine) is given as “about 40 fold”. For the same compound, in [8], the “induction of mEpo expression, Epo-3H4” value is about 9 fold.
